{
  "source": "paper PMC2766802",
  "about": "(Analytical biochemistry, 2009)",
  "key": {"[1]": {"system": "untransduced U-2 OS cells", "assay": "thallium flux counter-screen in untransduced U-2 OS cells", "assay_type": "cell-based, human", "conditions": "concentration response (Fig. 3A)"}, "hERG channel": {"molecular_target": "hERG channel (Homo sapiens, UniProt Q12809)", "sequence (Q12809 whole entry)": "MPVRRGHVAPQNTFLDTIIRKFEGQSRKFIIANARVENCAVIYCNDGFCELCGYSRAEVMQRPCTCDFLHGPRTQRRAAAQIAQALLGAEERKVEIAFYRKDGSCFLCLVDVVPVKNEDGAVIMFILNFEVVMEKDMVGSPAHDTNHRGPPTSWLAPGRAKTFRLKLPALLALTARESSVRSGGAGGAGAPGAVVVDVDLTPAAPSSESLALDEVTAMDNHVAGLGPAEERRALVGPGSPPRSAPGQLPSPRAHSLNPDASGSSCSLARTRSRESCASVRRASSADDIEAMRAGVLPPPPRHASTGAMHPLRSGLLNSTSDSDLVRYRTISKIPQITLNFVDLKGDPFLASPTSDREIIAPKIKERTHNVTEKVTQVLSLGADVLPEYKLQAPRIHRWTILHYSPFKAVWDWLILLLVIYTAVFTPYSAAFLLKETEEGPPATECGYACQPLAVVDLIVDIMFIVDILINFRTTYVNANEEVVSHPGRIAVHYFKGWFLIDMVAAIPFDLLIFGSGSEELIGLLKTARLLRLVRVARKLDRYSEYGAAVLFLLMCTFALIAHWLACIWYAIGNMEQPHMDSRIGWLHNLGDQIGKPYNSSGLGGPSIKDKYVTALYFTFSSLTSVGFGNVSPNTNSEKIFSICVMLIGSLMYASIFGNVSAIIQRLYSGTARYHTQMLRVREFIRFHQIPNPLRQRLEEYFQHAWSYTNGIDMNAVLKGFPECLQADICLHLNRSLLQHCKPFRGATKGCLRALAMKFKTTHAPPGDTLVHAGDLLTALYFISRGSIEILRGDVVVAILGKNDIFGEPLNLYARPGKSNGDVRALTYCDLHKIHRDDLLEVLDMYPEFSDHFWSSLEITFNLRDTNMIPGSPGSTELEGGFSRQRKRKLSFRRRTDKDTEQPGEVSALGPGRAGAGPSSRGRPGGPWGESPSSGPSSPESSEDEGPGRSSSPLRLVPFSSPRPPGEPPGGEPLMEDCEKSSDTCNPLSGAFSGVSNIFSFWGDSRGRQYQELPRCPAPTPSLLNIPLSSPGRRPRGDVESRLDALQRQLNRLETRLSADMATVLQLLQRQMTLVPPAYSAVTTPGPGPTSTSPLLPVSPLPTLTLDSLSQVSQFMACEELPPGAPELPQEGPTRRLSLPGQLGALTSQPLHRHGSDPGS"}, "[2]": {"conditions": "IC50, LOPAC 1280 library qHTS, titration series, hERG-expressing U-2 OS cells"}},
  "note": "Counter-ions that a name gives are not always drawn. Like-named read-outs stand apart in the source and are kept apart here.",
  "data": [
    {"smiles": "O=C(CCCN1CCC(O)(c2ccc(Cl)cc2)CC1)c1ccc(F)cc1", "note": "[haloperidol]", "values": [
      {"measurement": "effect on untransduced cells", "setting": "[1]", "value": "no effect"}
    ]},
    {"smiles": "CCCCN1[C@@H]2CC[C@H]1CC(OC(c1ccc(F)cc1)c1ccc(F)cc1)C2", "note": "(some centres unmarked) [JHW 007 hydrochloride]", "values": [
      {"measurement": "IC50", "setting": "hERG channel; LOPAC 1280 library qHTS, titration series, hERG-expressing U-2 OS cells", "value": 90, "unit": "nM"}
    ]},
    {"smiles": "Cc1nc2sccn2c(=O)c1CCN1CCC(=C(c2ccc(F)cc2)c2ccc(F)cc2)CC1", "note": "[Ritanserin]", "values": [
      {"measurement": "IC50", "setting": "hERG channel; [2]", "value": 70, "unit": "nM"}
    ]},
    {"smiles": "CCOC(=O)C1=C[C@]2(CC)CCCN3CCc4c(n1c1ccccc41)[C@@H]32", "note": "[Vinpocetine]", "values": [
      {"measurement": "IC50", "setting": "hERG channel", "value": 140, "unit": "nM"}
    ]},
    {"smiles": "CCNC(=O)N1CCN(CCCC(c2ccc(F)cc2)c2ccc(F)cc2)CC1", "note": "[Amperozide hydrochloride]", "values": [
      {"measurement": "IC50", "setting": "hERG channel; [2]", "value": 60, "unit": "nM"}
    ]}
  ]
}
